Data set [1] has as its target T1, Platelet-derived growth factor receptor beta (Homo sapiens, UniProt P09619). Briefly: Inhibition of PDGFRbeta (unknown origin) by caliper mobility shift assay.
In data set [2] the target is T1, Platelet-derived growth factor receptor beta. The experiment in a line: Inhibition of PDGFRbeta (unknown origin) at 100 nM by caliper mobility shift assay relative to control.
In data set [3] the target is Platelet-derived growth factor receptor alpha (Homo sapiens, UniProt P16234). The conditions noted are these: dose 100.0 nM.
Description: Inhibition of PDGFRalpha (unknown origin) at 100 nM by caliper mobility shift assay relative to control
Data set [4] can be described thus: Toxicity in BALB/c nude mouse xenograted with human MNNG/HOS cells assessed as morphological change in liver at 15 to 30 mg/kg/day, po for 14 days by hematoxylin and eosin staining method. The class given is organism-based, HOS-TE85. To be noted: in vivo, 336 h, dose 15-30 mg/kg/day, time 14 day.
The nature of data set [5]: Toxicity in C57/BL6 mouse assessed as histopathological change in kidney at 40 to 80 mg/kg/day, po dosed for 10 days by Hematoxylin and eosin based staining analysis. Type of data set: organism-based. To be noted: in vivo, 240 h, dose 40-80 mg/kg/day, time 10 day.
The nature of data set [6]: Oral bioavailability in Sprague-Dawley rat at 20 mg/kg measured at 0.033 to 48 hrs by UHPLC-MS/MS analysis. Type of data set: ADME, organism-based. The conditions noted are these: in vivo, time 0.033-48 hrs.
The nature of data set [7]: Cmax in Sprague-Dawley rat at 20 mg/kg, po measured at 0.033 to 48 hrs by UHPLC-MS/MS analysis. Type of data set: ADME, organism-based. Set-up: dose 20 mg/kg, time upper 48 hrs, time lower 0.033 hrs, route po. To be noted: in vivo.
Data set [8] is described as follows: Toxicity in C57/BL6 mouse assessed as change in spleen weight at 40 to 80 mg/kg/day, po dosed for 10 days. Type of data set: organism-based. The conditions noted are these: in vivo, 240 h, dose 40-80 mg/kg/day, time 10 day.
Data set [9] is described as follows: Hepatotoxicity in C57/BL6 mouse assessed as effect on aspartate aminotransferase level at 40 to 80 mg/kg/day, po dosed for 10 days by liver function test. Type of data set: toxicity, organism-based. To be noted: in vivo, 240 h, dose 40-80 mg/kg/day, time 10 day.
Data set [10] in a line: Toxicity in BALB/c nude mouse xenograted with human MNNG/HOS cells assessed as effect on body weight at 15 to 30 mg/kg/day, po dosed for 14 days. Type of data set: organism-based, HOS-TE85. To be noted: in vivo, 336 h, dose 15-30 mg/kg/day, time 14 day.
A short description of data set [11]: Toxicity in C57/BL6 mouse assessed as change in heart weight at 40 to 80 mg/kg/day, po dosed for 10 days. The class given is organism-based. The conditions noted are these: in vivo, 240 h, dose 40-80 mg/kg/day, time 10 day.
A short description of data set [12]: Toxicity in BALB/c nude mouse xenograted with human MNNG/HOS cells assessed as effect on heart weight at 15 to 30 mg/kg/day, po dosed for 14 days. The class given is organism-based, HOS-TE85. To be noted: in vivo, 336 h, dose 15-30 mg/kg/day, time 14 day.
Data set [13] can be described thus: Toxicity in BALB/c nude mouse xenograted with human MNNG/HOS cells assessed as effect on kidney weight at 15 to 30 mg/kg/day, po dosed for 14 days. Type of data set: organism-based, HOS-TE85. To be noted: in vivo, 336 h, dose 15-30 mg/kg/day, time 14 day.
Data set [14] is described as follows: Nephrotoxicity in C57/BL6 mouse assessed as effect on creatinine level at 40 to 80 mg/kg/day, po dosed for 10 days by kidney function test. Type of data set: toxicity, organism-based. The conditions noted are these: in vivo, 240 h, dose 40-80 mg/kg/day, time 10 day.
The nature of data set [15]: AUC(0 to infinity) in Sprague-Dawley rat at 20 mg/kg, po measured at 0.033 to 48 hrs by UHPLC-MS/MS analysis. The class given is ADME, organism-based. Set-up: dose 20 mg/kg, time 0.033-48 hrs, route po. To be noted: in vivo.
Data set [16] can be described thus: Toxicity in BALB/c nude mouse xenograted with human MNNG/HOS cells assessed as morphological change in kidney at 15 to 30 mg/kg/day, po for 14 days by hematoxylin and eosin staining method. Type of data set: organism-based, HOS-TE85. To be noted: in vivo, 336 h, dose 15-30 mg/kg/day, time 14 day.
Data set [17] is described as follows: Toxicity in C57/BL6 mouse assessed as change in liver weight at 40 to 80 mg/kg/day, po dosed for 10 days. The class given is organism-based. To be noted: in vivo, 240 h, dose 40-80 mg/kg/day, time 10 day.
Data set [18] can be described thus: Toxicity in C57/BL6 mouse assessed as change in kidney weight at 40 to 80 mg/kg/day, po dosed for 10 days. The class given is organism-based. To be noted: in vivo, 240 h, dose 40-80 mg/kg/day, time 10 day.
Data set [19] in a line: Half life in Sprague-Dawley rat at 20 mg/kg, po measured at 0.033 to 48 hrs by UHPLC-MS/MS analysis. The class given is ADME, organism-based. The conditions noted are these: in vivo, time 0.033-48 hrs.
A short description of data set [20]: Toxicity in C57/BL6 mouse assessed as histopathological change in liver at 40 to 80 mg/kg/day, po dosed for 10 days by Hematoxylin and eosin based staining analysis. Type of data set: organism-based. To be noted: in vivo, 240 h, dose 40-80 mg/kg/day, time 10 day.
Data set [21] is described as follows: Toxicity in C57/BL6 mouse assessed as change in lung weight at 40 to 80 mg/kg/day, po dosed for 10 days. Type of data set: organism-based. To be noted: in vivo, 240 h, dose 40-80 mg/kg/day, time 10 day.
A short description of data set [22]: Cmax in Sprague-Dawley rat at 4 mg/kg, ip measured at 0.08 to 8 hrs by UHPLC-MS/MS analysis. The class given is ADME, organism-based. Set-up: time lower 0.08 hrs, dose 4 mg/kg, time upper 8 hrs, route ip. To be noted: in vivo.
Data set [23] in a line: Toxicity in C57/BL6 mouse assessed as change in body weight at 40 to 80 mg/kg/day, po dosed for 10 days. Type of data set: organism-based. The conditions noted are these: in vivo, 240 h, dose 40-80 mg/kg/day, time 10 day.
The nature of data set [24]: Hepatotoxicity in C57/BL6 mouse assessed as effect on alanine aminotransferase level at 40 to 80 mg/kg/day, po dosed for 10 days by liver function test. Type of data set: toxicity, organism-based. To be noted: in vivo, 240 h, dose 40-80 mg/kg/day, time 10 day.
Data set [25] can be described thus: Toxicity in BALB/c nude mouse xenograted with human MNNG/HOS cells assessed as effect on liver weight at 15 to 30 mg/kg/day, po dosed for 14 days. Type of data set: organism-based, HOS-TE85. The conditions noted are these: in vivo, 336 h, dose 15-30 mg/kg/day, time 14 day.
Data set [26] can be described thus: Toxicity in BALB/c nude mouse xenograted with human MNNG/HOS cells assessed as effect on spleen weight at 15 to 30 mg/kg/day, po dosed for 14 days. Type of data set: organism-based, HOS-TE85. The conditions noted are these: in vivo, 336 h, dose 15-30 mg/kg/day, time 14 day.
A short description of data set [27]: Half life in Sprague-Dawley rat at 4 mg/kg, ip measured at 0.08 to 8 hrs by UHPLC-MS/MS analysis. To be noted: in vivo, time 0.08-8 hrs. The class given is ADME, organism-based.
A short description of data set [28]: Toxicity in C57/BL6 mouse assessed as tolerability at 40 to 80 mg/kg/day, po dosed for 10 days. Type of data set: organism-based. The conditions noted are these: in vivo, 240 h, dose 40-80 mg/kg/day, time 10 day.
Data set [29] can be described thus: AUC(0 to infinity) in Sprague-Dawley rat at 4 mg/kg, ip measured at 0.08 to 8 hrs by UHPLC-MS/MS analysis. Type of data set: ADME, organism-based. Set-up: dose 4 mg/kg, time 0.08-8 hrs, route ip. To be noted: in vivo.
A short description of data set [30]: Toxicity in BALB/c nude mouse xenograted with human MNNG/HOS cells assessed as effect on lung weight at 15 to 30 mg/kg/day, po dosed for 14 days. To be noted: in vivo, 336 h, dose 15-30 mg/kg/day, time 14 day. The class given is organism-based, HOS-TE85.
Data set [31] deals with HOS-TE85. The experiment in a line: Antiproliferative activity against human MNNG/HOS cells assessed as reduction in cell viability incubated for 48 hrs by MTT assay. To be noted: HOS-TE85, 48 h. For orientation: Tetrazolium dyes change colour on reduction, which living cells bring about.
Data set [32] relates to U2OS. Briefly: Antiproliferative activity against human U2OS cells assessed as reduction in cell viability incubated for 48 hrs by MTT assay.
Data set [33] has as its system SAOS-2. Briefly: Antiproliferative activity against human SAOS-2 cells assessed as reduction in cell viability incubated for 48 hrs by MTT assay. The conditions noted are these: SAOS-2, 48 h.
Data set [34] concerns MG-63. The experiment in a line: Antiproliferative activity against human MG-63 cells assessed as reduction in cell viability incubated for 48 hrs by MTT assay. The conditions noted are these: MG-63, 48 h.

T1 sequence (P09619 whole entry): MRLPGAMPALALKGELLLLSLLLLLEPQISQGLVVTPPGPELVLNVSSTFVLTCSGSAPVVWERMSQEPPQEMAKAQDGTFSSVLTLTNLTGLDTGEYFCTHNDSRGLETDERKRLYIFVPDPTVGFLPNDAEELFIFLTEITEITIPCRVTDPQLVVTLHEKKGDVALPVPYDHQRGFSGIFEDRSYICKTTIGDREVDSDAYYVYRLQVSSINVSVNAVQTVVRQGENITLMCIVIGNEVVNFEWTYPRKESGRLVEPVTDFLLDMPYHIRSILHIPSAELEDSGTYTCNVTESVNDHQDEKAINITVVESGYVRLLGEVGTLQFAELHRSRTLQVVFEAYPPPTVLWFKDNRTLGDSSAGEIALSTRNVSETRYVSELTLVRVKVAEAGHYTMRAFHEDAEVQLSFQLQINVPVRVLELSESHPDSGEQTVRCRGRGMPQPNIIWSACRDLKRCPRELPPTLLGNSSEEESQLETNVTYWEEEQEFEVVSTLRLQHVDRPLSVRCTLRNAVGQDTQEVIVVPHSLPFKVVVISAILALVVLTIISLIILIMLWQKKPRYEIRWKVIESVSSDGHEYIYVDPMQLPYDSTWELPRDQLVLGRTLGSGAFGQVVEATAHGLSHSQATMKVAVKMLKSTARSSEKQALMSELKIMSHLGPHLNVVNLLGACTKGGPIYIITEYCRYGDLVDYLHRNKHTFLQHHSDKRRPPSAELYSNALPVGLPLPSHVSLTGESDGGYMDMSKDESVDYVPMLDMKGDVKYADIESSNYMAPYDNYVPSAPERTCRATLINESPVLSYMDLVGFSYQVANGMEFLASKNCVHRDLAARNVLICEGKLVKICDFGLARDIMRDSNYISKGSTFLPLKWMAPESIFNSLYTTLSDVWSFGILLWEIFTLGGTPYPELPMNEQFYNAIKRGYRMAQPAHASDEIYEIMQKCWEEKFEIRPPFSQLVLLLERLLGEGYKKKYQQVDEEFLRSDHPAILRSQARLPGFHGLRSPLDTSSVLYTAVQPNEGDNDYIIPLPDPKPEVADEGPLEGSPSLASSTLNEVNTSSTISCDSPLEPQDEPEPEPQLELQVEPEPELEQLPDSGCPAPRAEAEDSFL
Sequence of Platelet-derived growth factor receptor alpha (P16234 whole entry): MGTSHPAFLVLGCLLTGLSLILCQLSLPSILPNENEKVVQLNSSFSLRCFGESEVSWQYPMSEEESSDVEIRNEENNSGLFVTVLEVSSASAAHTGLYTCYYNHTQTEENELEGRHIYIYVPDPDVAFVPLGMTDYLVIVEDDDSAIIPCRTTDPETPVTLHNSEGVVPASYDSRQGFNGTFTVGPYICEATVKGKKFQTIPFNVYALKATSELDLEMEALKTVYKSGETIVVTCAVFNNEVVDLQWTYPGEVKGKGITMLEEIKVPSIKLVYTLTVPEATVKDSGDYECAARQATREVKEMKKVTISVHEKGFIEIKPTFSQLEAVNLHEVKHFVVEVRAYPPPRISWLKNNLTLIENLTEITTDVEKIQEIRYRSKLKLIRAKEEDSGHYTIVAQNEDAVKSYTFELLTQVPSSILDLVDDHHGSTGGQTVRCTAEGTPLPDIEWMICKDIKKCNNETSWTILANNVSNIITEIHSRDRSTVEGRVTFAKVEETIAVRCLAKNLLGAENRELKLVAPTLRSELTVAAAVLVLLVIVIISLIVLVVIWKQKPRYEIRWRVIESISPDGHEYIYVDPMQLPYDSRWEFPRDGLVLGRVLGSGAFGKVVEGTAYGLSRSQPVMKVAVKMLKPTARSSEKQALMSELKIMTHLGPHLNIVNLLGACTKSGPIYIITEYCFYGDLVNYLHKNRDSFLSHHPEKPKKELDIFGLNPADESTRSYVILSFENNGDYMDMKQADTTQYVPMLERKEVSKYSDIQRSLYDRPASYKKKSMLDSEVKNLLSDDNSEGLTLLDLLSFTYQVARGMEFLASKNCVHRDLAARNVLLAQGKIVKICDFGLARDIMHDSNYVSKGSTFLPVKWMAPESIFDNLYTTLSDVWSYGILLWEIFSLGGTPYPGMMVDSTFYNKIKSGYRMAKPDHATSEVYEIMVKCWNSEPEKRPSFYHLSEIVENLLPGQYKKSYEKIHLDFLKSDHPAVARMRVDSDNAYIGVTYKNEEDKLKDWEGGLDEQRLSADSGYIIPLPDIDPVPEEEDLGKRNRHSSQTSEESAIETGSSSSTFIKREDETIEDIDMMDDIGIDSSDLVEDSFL

The term IC50 denotes the point on the concentration scale where inhibition reaches its midpoint. For the molecule `Cc1cnc(Nc2ccc(C(=O)N3CCN(C)CC3)cc2)nc1Nc1ccc2cn[nH]c2c1`, the IC50 in data set [1] is 47.7 nM.

For `Cc1cnc(Nc2ccc(N3CCC(F)(F)CC3)cc2)nc1Nc1ccc2cn[nH]c2c1`, in data set [1], the IC50 is 90.9 nM.

The term inhibition denotes how much of the control response was suppressed. `CN1CCN(c2ccc(Nc3ncc(Br)c(Nc4ccc5cn[nH]c5c4)n3)cc2)CC1`: the inhibition in data set [2] is 97.6%; in data set [3], 89.9%.

As to `Cc1cnc(Nc2ccc(N3CCC(N4CCN(C)CC4)CC3)cc2)nc1Nc1ccc2cn[nH]c2c1`, in [1], the 50% inhibitory concentration (IC50) is 16.7 nM.

For `Cc1cnc(Nc2ccc(C(=O)NCCN3CCOCC3)cc2)nc1Nc1ccc2cn[nH]c2c1`, the half-inhibitory concentration (IC50) in data set [1] is 15.9 nM.

In the case of `Cc1cnc(Nc2ccc(N3CCOCC3)cc2)nc1Nc1ccc2cn[nH]c2c1`, the IC50 in [1] amounted to 6.9 nM.

Regarding `Cc1cnc(Nc2ccc(N3CCS(=O)(=O)CC3)cc2)nc1Nc1ccc2cn[nH]c2c1`, the IC50 in [1] came out at 40.9 nM.

As to `CN1CCN(c2ccc(Nc3nc(Nc4ccc5cn[nH]c5c4)cc(C(F)(F)F)n3)cc2)CC1`, the inhibition in data set [2] is 3.5%.

Usually bioavailability stands for dose-corrected exposure relative to a reference, in per cent. In general, Cmax refers to the peak of the concentration-time curve. As a reminder, the AUC(0-inf) is the area under the concentration-time curve extrapolated to infinity. A word on the half-life: it is how long it takes for the measured level to halve. The low end stands for fast loss, the high end for slow loss. `CCN1CCN(c2ccc(Nc3ncc(C)c(Nc4ccc5cn[nH]c5c4)n3)cc2OC)CC1.Cl`: the Activity result in data set [4], in [5], in [8], in data set [9], in [10] and in data set [11] was “Non-Toxic” each time. The Activity result in data set [12], in data set [13], in data set [14], in data set [16], in data set [17] and in [18] was “Non-Toxic” throughout. The Activity entry in data set [20], in data set [21], in data set [23], in data set [24], in data set [25] and in data set [26] was “Non-Toxic” throughout. Moreover, the Activity result in [28] and in [30] was “Non-Toxic” throughout. For the same molecule, the bioavailability in [6] was 62.9%. Also, the Cmax in data set [7] turned out to be 75.2 ng/mL; in data set [22], 78.3 ng/mL. The AUC(0-inf) came out at 665 ng·h/mL in data set [15] and 211 ng·h/mL in data set [29]. For the same molecule, the half-life was 2.12 h in [19] and 2.86 h in data set [27].

Take `Cc1cnc(Nc2ccc(N3CCN(C)CC3)cc2)nc1Nc1ccc2nccnc2c1`: the inhibition in data set [2] is 74.1%.

Turning to `COc1cc(Nc2ncc(C)c(Nc3ccc4cn[nH]c4c3)n2)ccc1N1CCN(C)CC1`, the IC50 came out at 1360 nM in data set [31]; 760 nM in data set [32]; 4.6 nM in [1]; 720 nM in data set [33]; 840 nM in data set [34].

As for `CN1CCN(c2ccc(Nc3nc(Nc4ccc5cn[nH]c5c4)c4sccc4n3)cc2)CC1`, in data set [2], the inhibition was 21.2%.

Take `Cc1cnc(Nc2ccc(N3CCN(C)CC3)cc2)nc1Nc1ccc2c(ccn2C)c1`: the inhibition in data set [2] was found to be 79.2%.

As for `Cc1cnc(Nc2ccc(N3CCN(C)CC3)cc2)nc1Nc1ccc2cccnc2c1`, the inhibition in data set [2] is 91%.

`COc1cnc(Nc2ccc(N3CCN(C)CC3)cc2)nc1Nc1ccc2cn[nH]c2c1`: the inhibition in [2] is 55%.

Regarding `Cc1cnc(Nc2ccc(N3CCN(C)CC3)cc2)nc1Nc1ccc2[nH]ncc2c1`, the inhibition in data set [2] amounted to 84.1%.

As for `CCN1CCN(c2ccc(Nc3ncc(C)c(Nc4ccc5cn[nH]c5c4)n3)cc2)CC1`, the IC50 in data set [31] worked out at 1400 nM; in data set [32], 550 nM; in data set [1], 7.6 nM; in data set [33], 950 nM; in [34], 960 nM.

The values above are taken from ChEMBL document CHEMBL5154776, “Discovery of Potent and Orally Bioavailable Platelet-Derived Growth Factor Receptor (PDGFR) Inhibitors for the Treatment of Osteosarcoma” (J Med Chem, 2022).
